# Results published in patent US8536168B2 (Novartis AG, priority 2007, dated 2013).
# Read-outs that look alike come from different tables or passages of the source.
# Legend:
# [1] = tested on: Gli-luciferase activity; assay: Reporter gene assay (RGA) in TMHh12 cells, antagonism of Gli-luciferase activity in the presence of a Smo agonist; format: cell-based
# Experimental: Activity of the compounds was evaluated using a reporter gene assay (RGA) in TMHh12 cells.
# [2] = target: human Smoothened receptor (Homo sapiens, UniProt Q99835); assay: Smo binding assay, displacement of radio-labeled smoothened agonist, filter binding format (human); settings: displacement of small molecule agonist of Smoothened, read-out: Human Smo bdg., IC50
# human Smoothened receptor, sequence (Q99835 28-787): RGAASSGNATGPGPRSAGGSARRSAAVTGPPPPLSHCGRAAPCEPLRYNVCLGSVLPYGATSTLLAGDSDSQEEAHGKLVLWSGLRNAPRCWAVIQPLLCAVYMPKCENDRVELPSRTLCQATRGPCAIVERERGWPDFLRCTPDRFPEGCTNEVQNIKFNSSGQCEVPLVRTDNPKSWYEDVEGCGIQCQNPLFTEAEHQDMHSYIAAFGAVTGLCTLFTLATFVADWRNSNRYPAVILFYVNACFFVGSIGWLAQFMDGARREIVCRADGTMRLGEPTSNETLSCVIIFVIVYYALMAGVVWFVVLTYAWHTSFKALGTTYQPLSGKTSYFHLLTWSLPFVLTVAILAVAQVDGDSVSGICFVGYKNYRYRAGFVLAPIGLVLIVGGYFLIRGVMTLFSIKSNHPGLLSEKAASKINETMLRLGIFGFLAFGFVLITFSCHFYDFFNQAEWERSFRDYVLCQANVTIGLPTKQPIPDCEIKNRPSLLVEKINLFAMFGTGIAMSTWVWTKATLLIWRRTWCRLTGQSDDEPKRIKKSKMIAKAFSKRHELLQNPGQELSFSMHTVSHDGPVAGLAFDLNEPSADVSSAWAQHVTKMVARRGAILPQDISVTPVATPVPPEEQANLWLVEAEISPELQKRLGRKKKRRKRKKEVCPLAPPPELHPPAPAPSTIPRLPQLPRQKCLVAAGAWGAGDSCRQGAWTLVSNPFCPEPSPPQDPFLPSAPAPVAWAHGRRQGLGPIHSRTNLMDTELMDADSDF
# From the text: A Smo binding assay was developed using radio-labeled smoothened agonist for compound competition. Table 9 lists the IC50 for displacement of a small molecule agonist of Smoothened determined in a filter binding format for the mouse and human Smoothened receptor.
# [3] = target: mouse Smoothened receptor (Mus musculus, UniProt P56726); assay: Smo binding assay, displacement of radio-labeled smoothened agonist, filter binding format (mouse); settings: displacement of small molecule agonist of Smoothened, read-out: Mouse Smo bdg., IC50
# mouse Smoothened receptor, sequence (P56726 33-793): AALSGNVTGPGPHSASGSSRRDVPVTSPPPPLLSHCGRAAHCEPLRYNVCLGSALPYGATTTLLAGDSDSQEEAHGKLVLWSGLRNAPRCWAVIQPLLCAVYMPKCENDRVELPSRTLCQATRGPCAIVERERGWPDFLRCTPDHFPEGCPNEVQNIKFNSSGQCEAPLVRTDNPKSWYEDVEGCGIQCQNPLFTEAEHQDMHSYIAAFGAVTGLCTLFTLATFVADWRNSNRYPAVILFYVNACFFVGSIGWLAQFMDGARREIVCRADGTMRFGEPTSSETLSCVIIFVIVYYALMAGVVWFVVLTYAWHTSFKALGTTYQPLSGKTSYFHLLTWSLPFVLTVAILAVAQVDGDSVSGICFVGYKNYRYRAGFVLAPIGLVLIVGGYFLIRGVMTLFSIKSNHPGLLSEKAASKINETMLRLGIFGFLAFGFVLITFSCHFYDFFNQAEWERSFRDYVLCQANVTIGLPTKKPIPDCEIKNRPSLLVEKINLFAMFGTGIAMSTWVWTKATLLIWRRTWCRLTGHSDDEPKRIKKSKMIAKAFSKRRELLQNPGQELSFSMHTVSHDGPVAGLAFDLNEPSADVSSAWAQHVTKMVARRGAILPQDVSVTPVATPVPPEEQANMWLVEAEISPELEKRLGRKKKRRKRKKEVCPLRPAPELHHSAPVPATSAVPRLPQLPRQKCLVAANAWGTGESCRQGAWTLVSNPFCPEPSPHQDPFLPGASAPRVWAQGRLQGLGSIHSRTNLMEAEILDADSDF
# From the text: A Smo binding assay was developed using radio-labeled smoothened agonist for compound competition.
# [4] = 25 nM small molecule Smo agonist, read-out: RGA (25 nM Smo agonist) IC50
# [5] = read-out: RGA (1 nM Smo agonist) IC50, 1 nM small molecule Smo agonist
Structure (SMILES),"IC50 [1, 4] [nM]","IC50 [1, 5] [nM]",IC50 [2] [nM],IC50 [3] [nM]
"O=C(Cc1ccc(N2CCN(c3nnc(Cc4ccccc4)c4ccccc34)CC2)nc1)N1CCCC1 [Example 171, 2-{6-[4-(4-Benzyl-phthalazin-1-yl)-piperazin-1-yl]-pyridin-3-yl}-1-pyrrolidin-1-yl-ethanone]",100 to 1000,< 100,< 100,< 100
"CC(C)(O)Cc1ccc(N2CCN(c3nnc(Cc4ccccc4)c4ccccc34)CC2)nc1 [Example 172, 1-{6-[4-(4-Benzyl-phthalazin-1-yl)-piperazin-1-yl]-pyridin-3-yl}-2-methyl-propan-2-ol]",< 100,< 100,< 100,< 100
N#Cc1ccc(N2CCN(c3nnc(Cc4ccccc4Cl)c4ccccc34)CC2)nc1 [Example 174],1000 to 10000,< 100,100 to 1000,100 to 1000
COc1ccccc1Cc1nnc(N2CCN(c3ccc(C#N)cn3)CC2)c2ccccc12 [Example 175],1000 to 10000,100 to 1000,1000 to 10000,100 to 1000
N#Cc1ccc(N2CCN(c3nnc(Cc4ccc(Cl)c(C(F)(F)F)c4)c4ccccc34)CC2)nc1 [Example 178],100 to 1000,100 to 1000,100 to 1000,100 to 1000
N#Cc1ccc(N2CCN(c3nnc(Cc4ccc(C(=O)O)cc4)c4ccccc34)CC2)nc1 [Example 180],10000 to 40000,1000 to 10000,10000 to 40000,10000 to 40000
N#Cc1ccc(N2CCN(c3nnc(Cc4ccc(F)cc4)c4ccccc34)CC2)nc1 [Example 181],100 to 1000,< 100,100 to 1000,< 100
CCOC(=O)c1ccc(N2CCN(c3nnc(Cc4ccccc4F)c4ccccc34)CC2)nc1 [Example 184],100 to 1000,100 to 1000,< 100,< 100
CCOC(=O)c1ccc(N2CCN(c3nnc(Cc4cccc(F)c4)c4ccccc34)CC2)nc1 [Example 185],1000 to 10000,100 to 1000,< 100,< 100
CCOC(=O)c1ccc(N2CCN(c3nnc(Cc4ccc(Cl)cc4Cl)c4ccccc34)CC2)nc1 [Example 186],100 to 1000,100 to 1000,< 100,< 100
CCOC(=O)c1ccc(N2CCN(c3nnc(Cc4ccccc4Cl)c4ccccc34)[C@@H](C)C2)nc1 [Example 188],100 to 1000,< 100,< 100,< 100
"CC(C)(O)c1ccc(N2CCN(c3nnc(Cc4ccc(F)cc4)c4ccccc34)CC2)nc1 [Example 191, 2-(6-{4-[4-(4-Fluoro-benzyl)-phthalazin-1-yl]-piperazin-1-yl}-pyridin-3-yl)-propan-2-ol]",< 100,< 100,< 100,< 100
CC(C)(O)c1ccc(N2CCN(c3nnc(Cc4ccc(F)cc4F)c4ccccc34)CC2)nc1 [Example 193],< 100,< 100,< 100,< 100
C[C@H]1CN(c2ccc(C(C)(C)O)cn2)CCN1c1nnc(Cc2ccc(F)cc2F)c2ccccc12 [Example 195],< 100,< 100,< 100,< 100
C[C@H]1CN(c2ccc(C(C)(C)O)cn2)CCN1c1nnc(Cc2ccccc2Cl)c2ccccc12 [Example 196],< 100,< 100,< 100,< 100
CN(CCO)C(=O)c1ccc(N2CCN(c3nnc(Cc4ccccc4Cl)c4ccccc34)CC2)nc1 [Example 200],100 to 1000,< 100,< 100,< 100
"CCOC(=O)c1ccc(N2CCN(c3nnc(CN4CCOCC4)c4ccccc34)CC2)nc1 [Example 203, 6-[4-(4-Morpholin-4-ylmethyl-phthalazin-1-yl)-piperazin-1-yl]-nicotinic acid ethyl ester]",1000 to 10000,100 to 1000,100 to 1000,100 to 1000
CCC(=O)NCc1ccc(N2CCN(c3nnc(Cc4ccccc4)c4ccccc34)CC2)nc1 [Example 207],100 to 1000,< 100,100 to 1000,100 to 1000
COCC(=O)NCc1ccc(N2CCN(c3nnc(Cc4ccccc4)c4ccccc34)CC2)nc1 [Example 208],< 100,< 100,100 to 1000,100 to 1000
CC(C)CC(=O)NCc1ccc(N2CCN(c3nnc(Cc4ccccc4)c4ccccc34)CC2)nc1 [Example 210],< 100,< 100,< 100,< 100

# Results, then the compound that gave them:
"IC50 [1, 4] [nM]","IC50 [1, 5] [nM]",IC50 [2] [nM],IC50 [3] [nM],Structure (SMILES)
100 to 1000,< 100,< 100,< 100,Cc1ccc(Cc2nnc(N3CCN(c4ccc(C#N)cn4)CC3)c3ccccc23)cc1 [Example 173]
1000 to 10000,100 to 1000,100 to 1000,100 to 1000,N#Cc1ccc(N2CCN(c3nnc(Cc4ccc(Cl)c(Cl)c4)c4ccccc34)CC2)nc1 [Example 176]
100 to 1000,100 to 1000,< 100,< 100,N#Cc1ccc(N2CCN(c3nnc(Cc4ccc(Cl)cc4Cl)c4ccccc34)CC2)nc1 [Example 177]
10000 to 40000,100 to 1000,100 to 1000,100 to 1000,COC(=O)c1ccc(Cc2nnc(N3CCN(c4ccc(C#N)cn4)CC3)c3ccccc23)cc1 [Example 179]
100 to 1000,100 to 1000,100 to 1000,100 to 1000,N#Cc1ccc(N2CCN(c3nnc(Cc4cccc(F)c4)c4ccccc34)CC2)nc1 [Example 182]
1000 to 10000,100 to 1000,< 100,< 100,CCOC(=O)c1ccc(N2CCN(c3nnc(Cc4ccc(F)cc4)c4ccccc34)CC2)nc1 [Example 183]
100 to 1000,< 100,< 100,< 100,CCOC(=O)c1ccc(N2CCN(c3nnc(Cc4ccc(F)cc4F)c4ccccc34)[C@@H](C)C2)nc1 [Example 187]
100 to 1000,< 100,< 100,< 100,CC(C)(O)c1ccc(N2CCN(c3nnc(Cc4ccccc4Cl)c4ccccc34)CC2)nc1 [Example 192]
100 to 1000,< 100,< 100,< 100,Cc1ccccc1Cc1nnc(N2CCN(c3ccc(C(C)(C)O)cn3)CC2)c2ccccc12 [Example 194]
100 to 1000,< 100,< 100,< 100,"CN(CCO)C(=O)c1ccc(N2CCN(c3nnc(Cc4ccc(F)cc4)c4ccccc34)CC2)nc1 [Example 198, 6-{4-[4-(4-Fluoro-benzyl)-phthalazin-1-yl]-piperazin-1-yl}-N-(2-hydroxyethyl)-N-methyl-nicotinamide]"
100 to 1000,< 100,100 to 1000,100 to 1000,CN(CCO)C(=O)c1ccc(N2CCN(c3nnc(Cc4ccc(F)cc4F)c4ccccc34)CC2)nc1 [Example 199]
100 to 1000,< 100,< 100,< 100,CN(CCO)C(=O)c1ccc(N2CCN(c3nnc(Cc4ccc(Cl)c(Cl)c4)c4ccccc34)CC2)nc1 [Example 201]
